Numbers after ± are expanded uncertainties.
Experiment: molar heat capacity at constant pressure
Details: 101.33 kPa, Small (less than 1 g) adiabatic calorimetry

CCCCn1cc[n+](C)c1.F[B-](F)(F)F [1-butyl-3-methylimidazolium tetrafluoroborate]
Details | molar heat capacity at constant pressure [J/K/mol]
147.63 K, Glass | 206.5 ± 1.1
149.17 K, Glass | 208 ± 1.1
149.9 K, Glass | 209.1 ± 1.1
150 K, Glass | 208.9 ± 1.1
150.24 K, Glass | 209.1 ± 1.1
151.78 K, Glass | 210.6 ± 1.1
152.52 K, Glass | 211.6 ± 1.1
152.86 K, Glass | 211.8 ± 1.1
154.39 K, Glass | 213.3 ± 1.1
155.13 K, Glass | 214.2 ± 1.1
155.48 K, Glass | 214.4 ± 1.1
157 K, Glass | 216 ± 1.1
157.74 K, Glass | 216.9 ± 1.2
158.09 K, Glass | 217.2 ± 1.2
159.61 K, Glass | 218.7 ± 1.2
160 K, Glass | 219.3 ± 1.2
160.35 K, Glass | 219.7 ± 1.2
160.71 K, Glass | 219.9 ± 1.2
162.21 K, Glass | 221.6 ± 1.2
162.96 K, Glass | 222.4 ± 1.2
163.32 K, Glass | 222.8 ± 1.2
164.8 K, Glass | 224.5 ± 1.2
165.57 K, Glass | 225.6 ± 1.2
165.93 K, Glass | 225.7 ± 1.2
167.4 K, Glass | 227.5 ± 1.2
168.19 K, Glass | 228.6 ± 1.2
168.53 K, Glass | 228.9 ± 1.2
169.99 K, Glass | 230.8 ± 1.2
170 K, Glass | 230.8 ± 1.2
170.79 K, Glass | 232 ± 1.2
171.13 K, Glass | 232.5 ± 1.2
172.58 K, Glass | 234.6 ± 1.2
173.37 K, Glass | 236 ± 1.2
173.73 K, Glass | 236.7 ± 1.2
175.18 K, Glass | 239.5 ± 1.3
175.96 K, Glass | 241.5 ± 1.3
176.31 K, Glass | 242.4 ± 1.3
177.73 K, Glass | 247 ± 1.3
178.51 K, Glass | 249.7 ± 1.3
178.86 K, Glass | 251.9 ± 1.3
180 K, Glass | 260.4 ± 1.3
180.22 K, Glass | 262.1 ± 1.4
180.97 K, Glass | 268.6 ± 1.4
181.29 K, Liquid | 276.1 ± 1.5
182.48 K, Liquid | 309.1 ± 1.6
183.17 K, Liquid | 322.3 ± 1.7
183.45 K, Liquid | 329.7 ± 1.7
184.59 K, Liquid | 329.2 ± 1.7
185.3 K, Liquid | 329.5 ± 1.7
185.6 K, Liquid | 330 ± 1.7
186.77 K, Liquid | 331 ± 1.7
187.48 K, Liquid | 331.6 ± 1.7
187.79 K, Liquid | 331.2 ± 1.7
188.95 K, Liquid | 331.4 ± 1.7
189.98 K, Liquid | 331.5 ± 1.7
190 K, Liquid | 331.5 ± 1.7
191.13 K, Liquid | 331.6 ± 1.7
192.17 K, Liquid | 331.7 ± 1.7
193.32 K, Liquid | 331.9 ± 1.7
194.37 K, Liquid | 332 ± 1.7
195.51 K, Liquid | 332.2 ± 1.7
196.58 K, Liquid | 332.3 ± 1.7
197.71 K, Liquid | 332.5 ± 1.7
198.79 K, Liquid | 332.6 ± 1.7
199.91 K, Liquid | 332.8 ± 1.7
200 K, Liquid | 333 ± 1.7
202.13 K, Liquid | 333.2 ± 1.7
204.34 K, Liquid | 333.6 ± 1.7
206.55 K, Liquid | 334 ± 1.7
208.77 K, Liquid | 334.5 ± 1.7
210 K, Liquid | 335.1 ± 1.7
210.99 K, Liquid | 334.9 ± 1.7
213.22 K, Liquid | 335.4 ± 1.7
215.44 K, Liquid | 335.9 ± 1.7
220 K, Liquid | 337.5 ± 1.8
230 K, Liquid | 340.4 ± 1.8
240 K, Liquid | 343.6 ± 1.8
250 K, Liquid | 347.2 ± 1.8
260 K, Liquid | 350.9 ± 1.8
263.82 K, Liquid | 351.8 ± 1.8
266.12 K, Liquid | 352.8 ± 1.8
268.4 K, Liquid | 353.7 ± 1.8
270 K, Liquid | 354.9 ± 1.8
270.68 K, Liquid | 354.6 ± 1.8
272.95 K, Liquid | 355.5 ± 1.8
275.23 K, Liquid | 356.5 ± 1.8
277.5 K, Liquid | 357.6 ± 1.8
279.78 K, Liquid | 358.5 ± 1.8
280 K, Liquid | 359 ± 1.8
282.05 K, Liquid | 359.5 ± 1.8
284.33 K, Liquid | 360.3 ± 1.9
286.6 K, Liquid | 361.3 ± 1.9
288.87 K, Liquid | 362.4 ± 1.9
290 K, Liquid | 363.2 ± 1.9
291.14 K, Liquid | 363.3 ± 1.9
293.42 K, Liquid | 364.3 ± 1.9
295.69 K, Liquid | 365.2 ± 1.9
297.95 K, Liquid | 366.4 ± 1.9
298.15 K, Liquid | 366.7 ± 1.9
300 K, Liquid | 367.6 ± 1.9
300.22 K, Liquid | 367.4 ± 1.9
302.49 K, Liquid | 368.5 ± 1.9
304.75 K, Liquid | 369.6 ± 1.9
307.02 K, Liquid | 370.7 ± 1.9
309.28 K, Liquid | 371.7 ± 1.9
310 K, Liquid | 372.3 ± 1.9
311.54 K, Liquid | 372.7 ± 1.9
313.8 K, Liquid | 373.8 ± 1.9
316.06 K, Liquid | 375 ± 1.9
318.32 K, Liquid | 376.1 ± 1.9
320 K, Liquid | 377 ± 1.9
320.58 K, Liquid | 377 ± 1.9
322.83 K, Liquid | 378 ± 1.9
325.09 K, Liquid | 379.3 ± 1.9
327.34 K, Liquid | 380.1 ± 1.9
329.59 K, Liquid | 381.1 ± 2
330 K, Liquid | 381.7 ± 1.9
331.84 K, Liquid | 382.2 ± 2
334.09 K, Liquid | 383.3 ± 2
336.34 K, Liquid | 384.3 ± 2
338.58 K, Liquid | 385.6 ± 2
340 K, Liquid | 386.4 ± 1.9
340.83 K, Liquid | 386.7 ± 2
343.08 K, Liquid | 387.6 ± 2
345.32 K, Liquid | 388.7 ± 2
347.57 K, Liquid | 389.7 ± 2
349.81 K, Liquid | 390.7 ± 2
350 K, Liquid | 391.1 ± 2
352.05 K, Liquid | 391.7 ± 2
354.29 K, Liquid | 392.8 ± 2
356.53 K, Liquid | 393.9 ± 2
358.76 K, Liquid | 394.9 ± 2
360 K, Liquid | 395.9 ± 2
361 K, Liquid | 395.8 ± 2
363.23 K, Liquid | 397.1 ± 2
365.46 K, Liquid | 398 ± 2
367.7 K, Liquid | 399 ± 2
370 K, Liquid | 400.6 ± 2
